Measured values published in patent US9771370B2, “Compounds for the inhibition of indoleamine-2,3-dioxygenase” (Merck Patent GmbH, priority 2014, dated 2017).

Biological target: Recombinant human IDO (Homo sapiens, UniProt P14902)
Assay: Bridge-IT tryptophan fluorescence assay of human IDO-1 inhibition
Type: biochemical
Conditions: recombinant human IDO 7.5 nM, L-tryptophan
Description: Measurement of human IDO-1 inhibition is performed in 384 well format using the Bridge-IT® tryptophan Fluorescence Assay (Mediomics, LLC, St. Louis, Mo., U.S.A.).
The reaction is initiated by the addition of L-Tryptophan (Sigma) at a final concentration of 100 μM in assay buffer. After 90 minutes of incubation at 37° C., the reaction is stopped by transferring 1 μl of the reaction mixture to 9 μl of Bridge-IT assay solution A. After 30 min of incubation at 30° C., the fluorescence intensity was measured at λex=485 nm and λem=665 nm using Perkin Elmer Envision® Multilabel Reader.
Measurement of human IDO-1 inhibition was performed in 384-well format using the BRIDGE-IT® tryptophan Fluorescence Assay (Mediomics, LLC, St. Louis, Mo., U.S.A.). […] After 30 minutes of pre-incubation at 25° C., the reaction was initiated by the addition of L-Tryptophan (Sigma) at a final concentration of 50 μM in assay buffer. After 60 minutes of incubation at 25° C., the reaction is stopped by transferring 1 μl of the reaction mixture to 9 μl of Bridge-IT assay solution A. After 30 min of incubation at 30° C., the fluorescence intensity was measured at λex=485 nm and λem=665 nm using Perkin Elmer ENVISION® Multilabel Reader.

Recombinant human IDO, sequence (P14902 whole entry): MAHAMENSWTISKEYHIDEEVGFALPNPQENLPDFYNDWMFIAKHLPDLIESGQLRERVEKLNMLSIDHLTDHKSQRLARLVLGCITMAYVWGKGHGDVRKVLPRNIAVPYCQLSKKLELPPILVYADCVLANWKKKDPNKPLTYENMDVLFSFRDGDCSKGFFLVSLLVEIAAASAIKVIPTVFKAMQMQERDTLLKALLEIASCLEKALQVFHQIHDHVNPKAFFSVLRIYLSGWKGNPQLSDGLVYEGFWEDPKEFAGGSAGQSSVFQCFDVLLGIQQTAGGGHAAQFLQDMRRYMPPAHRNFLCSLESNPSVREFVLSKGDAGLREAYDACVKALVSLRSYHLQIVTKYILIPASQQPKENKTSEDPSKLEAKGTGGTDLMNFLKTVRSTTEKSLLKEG

Row | Compound | IC50 [µM]
1 | OCC1CCC(F)(CCC2c3c(Cl)cccc3-c3cncn32)CC1 (mixture of isomers) [Compound 105b, [4-[2-[6-chloro-5H-imidazo[4,3-a]isoindol-5-yl]ethyl]-4-fluorocyclohexyl]methanol] | > 1
2 | OC(CC1c2nccc(F)c2-c2cncn21)C1CCCCC1 (single isomer, unassigned) [Compound 101d, 1-cyclohexyl-2-[12-fluoro-4,6,9-triazatricyclo[6.4.0.0^[2,6]]dodeca-1(8),2,4,9,11-pentaen-7-yl]ethan-1-ol] | > 1
3 | OC(CC1c2nc(OC3CC3)ccc2-c2cncn21)C1CCCCC1 (single isomer, unassigned) [Compound 68c, 1-cyclohexyl-2-[10-cyclopropoxy-4,6,9-triazatricyclo[6.4.0.0^[2,6]]dodeca-1(8),2,4,9,11-pentaen-7-yl]ethan-1-ol] | > 1
4 | OC(CC1c2cc(F)ncc2-c2cncn21)C1CCCCC1 (single isomer, unassigned) [Compound 24b, 1-cyclohexyl-2-[10-fluoro-4,6,11-triazatricyclo[6.4.0.0^[2,6]]dodeca-1(8),2,4,9,11-pentaen-7-yl]ethan-1-ol] | > 1
5 | CC1(C)CCC(F)(CCC2c3ncccc3-c3cncn32)CC1 (single isomer, unassigned) [Compound 48b, 7-[2-(1-fluoro-4,4-dimethylcyclohexyl)ethyl]-4,6,9-triazatricyclo[6.4.0.0^[2,6]]dodeca-1(8),2,4,9,11-pentaene] | > 1
6 | Fc1ccc2c(n1)C(CCC1(F)CCC(F)(F)CC1)n1cncc1-2 (stereo not shown) [Compound 46, 10-fluoro-7-[2-(1,4,4-trifluorocyclohexyl)ethyl]-4,6,9-triazatricyclo[6.4.0.0^[2,6]]dodeca-1(8),2,4,9,11-pentaene] | > 1
7 | COc1ccc2c(n1)C(CC(N)C1CCC(C)(C)CC1)n1cncc1-2 (single isomer, unassigned) [Compound 119d, 1-(4,4-dimethylcyclohexyl)-2-[10-methoxy-4,6,9-triazatricyclo[6.4.0.0^[2,6]]dodeca-1(8),2,4,9,11-pentaen-7-yl]ethan-1-amine] | > 1
8 | COc1ccc2c(n1)C(CCC1(F)CCCCC1)n1cncc1-2 (single isomer, unassigned) [Compound 32a, 7-[2-(1-fluorocyclohexyl)ethyl]-10-methoxy-4,6,9-triazatricyclo[6.4.0.0^[2,6]]dodeca-1(8),2,4,9,11-pentaene] | > 1
9 | COc1ccc2c(n1)C(CC(N)C1CCC(C)(C)CC1)n1cncc1-2 (single isomer, unassigned) [Compound 119a, 1-(4,4-dimethylcyclohexyl)-2-[10-methoxy-4,6,9-triazatricyclo[6.4.0.0^[2,6]]dodeca-1(8),2,4,9,11-pentaen-7-yl]ethan-1-amine] | > 1
10 | OC1CCC(F)(CCC2c3cc(F)ncc3-c3cncn32)CC1 (single isomer, unassigned) [Compound 58a, 4-fluoro-4-[2-[10-fluoro-4,6,11-triazatricyclo[6.4.0.0^[2,6]]dodeca-1(8),2,4,9,11-pentaen-7-yl]ethyl]cyclohexan-1-ol] | > 1
11 | OC1(C2CCC(F)(CCC3c4ccccc4-c4cncn43)CC2)CC1 (single isomer, unassigned) [Compound 60b, 1-[4-fluoro-4-[2-[5H-imidazo[4,3-a]isoindol-5-yl]ethyl]cyclohexyl]cyclopropan-1-ol] | > 1
12 | FC1(CCC2c3ncccc3-c3cncn32)CCC2(CC1)CC2 (single isomer, unassigned) [Compound 30b, 7-(2-{6-fluorospiro[2.5]octan-6-yl}ethyl)-4,6,9-triazatricyclo[6.4.0.0^[2,6]]dodeca-1(8),2,4,9,11-pentaene] | > 1
13 | CC1(C)CCC(F)(CCC2c3ncncc3-c3cncn32)CC1 (single isomer, unassigned) [Compound 66b, 7-[2-(1-fluoro-4,4-dimethylcyclohexyl)ethyl]-4,6,9,11-tetraazatricyclo[6.4.0.0^[2,6]]dodeca-1(8),2,4,9,11-pentaene] | > 1
14 | OC(CC1c2nc(F)ccc2-c2cncn21)C1CCC(F)(F)CC1 (single isomer, unassigned) [Compound 26a, 1-(4,4-difluorocyclohexyl)-2-[10-fluoro-4,6,9-triazatricyclo[6.4.0.0^[2,6]]dodeca-1(8),2,4,9,11-pentaen-7-yl]ethan-1-ol] | > 1
15 | FC1(CCC2c3nc(C(F)(F)F)ccc3-c3cncn32)CCCCC1 (single isomer, unassigned) [Compound 76b, 7-[2-(1-fluorocyclohexyl)ethyl]-10-(trifluoromethyl)-4,6,9-triazatricyclo[6.4.0.0^[2,6]]dodeca-1(8),2,4,9,11-pentaene] | > 1

The next lines start with the values.

Row | IC50 [µM] | Compound
16 | > 1 | COc1cccc2c1-c1cncn1C2CCC1(F)CCCCC1 (single isomer, unassigned) [Compound 42a, 5-(2-(1-fluorocyclohexyl)ethyl)-9-methoxy-5H-imidazo[5,1-a]isoindole]
17 | < 0.1 | OC1CCC(F)(CCC2c3c(F)ccc(F)c3-c3cncn32)CC1 (single isomer, unassigned) [Compound 38d, 4-(2-(6,9-difluoro-5H-imidazo[5,1-a]isoindol-5-yl)ethyl)-4-fluorocyclohexanol]
18 | 0.1 to 1 | OC(CC1c2nc(F)ccc2-c2cncn21)C1CCC(F)(F)CC1 (single isomer, unassigned) [Compound 26b, 1-(4,4-difluorocyclohexyl)-2-[10-fluoro-4,6,9-triazatricyclo[6.4.0.0^[2,6]]dodeca-1(8),2,4,9,11-pentaen-7-yl]ethan-1-ol]
19 | > 1 | CN(C)C(=O)C1CCC(F)(CCC2c3c(Cl)cccc3-c3cncn32)CC1 (single isomer, unassigned) [Compound 114c, 4-[2-[6-chloro-5H-imidazo[4,3-a]isoindol-5-yl]ethyl]-4-fluoro-N,N-dimethylcyclohexane-1-carboxamide]
20 | > 1 | NC(=O)C1CCC(C(O)CC2c3ncccc3-c3cncn32)CC1 (single isomer, unassigned) [Compound 63d, 4-[1-hydroxy-2-[4,6,9-triazatricyclo[6.4.0.0^[2,6]]dodeca-1(8),2,4,9,11-pentaen-7-yl]ethyl]cyclohexane-1-carboxamide]
21 | < 0.1 | OCC1CCC(F)(CCC2c3ccccc3-c3cncn32)CC1 (single isomer, unassigned) [Compound 59b, [4-fluoro-4-[2-[5H-imidazo[4,3-a]isoindol-5-yl]ethyl]cyclohexyl]methanol]
22 | > 1 | FC1(F)CCC(F)(CCC2c3c(Cl)cccc3-c3cncn32)CC1 (single isomer, unassigned) [Compound 72a, 6-chloro-5-[2-(1,4,4-trifluorocyclohexyl)ethyl]-5H-imidazo[4,3-a]isoindole]
23 | 0.1 to 1 | COc1cccc2c1-c1cncn1C2CCC1(F)CCCCC1 (single isomer, unassigned) [Compound 42b, 5-(2-(1-fluorocyclohexyl)ethyl)-9-methoxy-5H-imidazo[5,1-a]isoindole]
24 | 0.1 to 1 | CC(C)(O)C1CCC(F)(CCC2c3c(Cl)cccc3-c3cncn32)CC1 (stereo not shown) [Compound 107b, 2-[4-(2-[6-chloro-5H-imidazo[4,3-a]isoindol-5-yl]ethyl)-4-fluorocyclohexyl]propan-2-ol]
25 | 0.1 to 1 | FC1(CCC2c3ncccc3-c3cncn32)CCC2(CC1)CC2 (single isomer, unassigned) [Compound 30a, 7-(2-{6-fluorospiro[2.5]octan-6-yl}ethyl)-4,6,9-triazatricyclo[6.4.0.0^[2,6]]dodeca-1(8),2,4,9,11-pentaene]
26 | < 0.1 | O=C(C1CCC(F)(CCC2c3c(Cl)cccc3-c3cncn32)CC1)N1CCCCC1 (single isomer, unassigned) [Compound 115a]
27 | < 0.1 | OC1(C2CCC(F)(CCC3c4ccccc4-c4cncn43)CC2)CC1 (single isomer, unassigned) [Compound 60a, 1-[4-fluoro-4-[2-[5H-imidazo[4,3-a]isoindol-5-yl]ethyl]cyclohexyl]cyclopropan-1-ol]
28 | > 1 | OC(CC1c2nc(Cl)ccc2-c2cncn21)C1CCCCC1 (single isomer, unassigned) [Compound 55c, 2-[10-chloro-4,6,9-triazatricyclo[6.4.0.0^[2,6]]dodeca-1(8),2,4,9,11-pentaen-7-yl]-1-cyclohexylethan-1-ol]
29 | > 1 | COc1ccc2c(n1)C(CC(N)C1CCC(F)(F)CC1)n1cncc1-2 (single isomer, unassigned) [Compound 120d, 1-(4,4-difluorocyclohexyl)-2-[10-methoxy-4,6,9-triazatricyclo[6.4.0.0^[2,6]]dodeca-1(8),2,4,9,11-pentaen-7-yl]ethan-1-amine]
30 | < 0.1 | OC1CCC(F)(CCC2c3cccc(F)c3-c3cncn32)CC1 (single isomer, unassigned) [Compound 35c, 4-fluoro-4-(2-(9-fluoro-5H-imidazo[5,1-a]isoindol-5-yl)ethyl)cyclohexanol]
31 | 0.1 to 1 | OC(CC1c2nc(Cl)ccc2-c2cncn21)C1CCCCC1 (single isomer, unassigned) [Compound 55a, 2-[10-chloro-4,6,9-triazatricyclo[6.4.0.0^[2,6]]dodeca-1(8),2,4,9,11-pentaen-7-yl]-1-cyclohexylethan-1-ol]
